Results taken from patent US20090264457A1, “Combination of at least two 5HT6-Ligands” (priority 2007, published 2009).
Entries after “also recorded” stand apart in the source; their conditions may differ.

Key:
[1] = test system: Lister Hooded rats; assay: Novel object discrimination trial (two trial paradigm); type: in vivo, rat; details: for Dose at which the maximum effect was achieved in dose response trials: i.p., drug 20 minutes before familiarisation trial, COMPOUND 1 at 1.25, 2.5, 5 or 10 mg/kg, SB-271046 at 5 or 10 mg/kg
Description: Adult male Lister Hooded rats (Charles River, UK) weighing 200-350 g at the start of the experiment were housed in groups of four on a 12:12 h light:dark cycle (lights on at 07:00 h). Food and water were available ad libitum throughout the study, and the room temperature (21±2° C.) and relative humidity (45-65%) were kept constant. […] Each drug combination was administered to all rats in the group over a period of 4 weeks in a random order using a seven day behavioural test interval.
The two trial novel object discrimination paradigm utilised, was as described by Ennaceur and Delacour, (1988) with minor modification (King et al., 2004b; Woolley et al., 2003). The twelve open field test arenas used for object discrimination were clear perspex boxes (39×23.5 cm with 24.5 cm high walls) to which each rat was habituated for 60 minutes the day prior to test days. On the test day the first drug was administered −40 minutes and the second drug −20 minutes before the familiarisation trial. Therefore, 20 minutes after the injection each rat received 3 minutes acclimatisation to the perspex box in absence of objects which was then followed by the 3 minute familiarisation trial and a second 3 minute choice trial following a 4 hour inter-trial interval. During both trials, exploration of each object was defined as the time spent (s) sniffing (within 1 cm of it with active vibrissae), licking, chewing or touching the object with the nose.

[2] = target: 5HT6 receptor (Homo sapiens, UniProt P50406); details: cited from earlier work
Sequence of 5HT6 receptor (P50406 whole entry): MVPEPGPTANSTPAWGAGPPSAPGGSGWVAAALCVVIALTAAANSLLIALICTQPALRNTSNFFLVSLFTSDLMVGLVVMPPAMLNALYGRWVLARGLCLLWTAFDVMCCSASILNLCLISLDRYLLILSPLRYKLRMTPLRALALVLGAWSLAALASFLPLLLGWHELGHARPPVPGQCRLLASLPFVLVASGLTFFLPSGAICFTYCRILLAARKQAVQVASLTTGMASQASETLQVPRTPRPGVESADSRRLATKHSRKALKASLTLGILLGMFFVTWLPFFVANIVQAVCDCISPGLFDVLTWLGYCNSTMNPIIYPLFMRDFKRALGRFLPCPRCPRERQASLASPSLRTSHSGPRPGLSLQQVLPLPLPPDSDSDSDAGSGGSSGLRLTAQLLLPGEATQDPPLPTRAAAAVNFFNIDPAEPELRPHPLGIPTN

SMILES | Effectiveness alone in novel object discrimination ([1]; SB-271046 alone at 5 mg/kg i.p., 5 mg/kg) | Dose at which the maximum effect was achieved in dose response trials [1] [mg/kg] | Functionality on the 5HT6 receptor [2] | Effectiveness alone in novel object discrimination ([1]; COMPOUND 1 alone at 1 mg/kg i.p., 1 mg/kg)
COc1ccc(NS(=O)(=O)c2sc3ccc(Cl)cc3c2C)cc1N1CCNCC1 [SB-271046, 5-Chloro-N-(4-methoxy-3-(piperazin-1-yl)phenyl)-3-methyl-2-benzothiophene sulfonamide] | either not or very low effective; also recorded: neither COMPOUND 1 at 1 mg/kg nor SB-271046 at 5 mg/kg being significantly effective | 10 | antagonist | 
CN(C)CCc1c[nH]c2ccc(NS(=O)(=O)c3c(Cl)nc4sccn34)cc12 [COMPOUND 1, 6-Chloro-imidazo[2,1-b]thiazole-5-sulfonic acid [3-(2-dimethylamino-ethyl)-1H-indol-5-yl]-amide] |  | 5 | agonist | either not or very low effective; also recorded: neither COMPOUND 1 at 1 mg/kg nor SB-271046 at 5 mg/kg being significantly effective
